Drawing on ChEMBL document CHEMBL2203162, “Triazole pyrimidine nucleosides as inhibitors of Ribonuclease A. Synthesis, biochemical, and structural evaluation” (Bioorg Med Chem, 2012), this text covers Ki and inhibition for 11 molecules.

SMILES strings stand for the structures.

A short description of assay [1]: Competitive inhibition of bovine pancreatic RNase A type 12-A by Dixon plot analysis. Set-up: species or system Bos taurus.
Another assay is filed under the species Bos taurus. Description: Competitive inhibition of bovine pancreatic RNase A type 12-A assessed as degradation of yeast tRNA at 50 uM preincubated for 10 mins before addition of the enzyme by double reciprocal plot analysis.
A short description of assay [2]: Competitive inhibition of bovine pancreatic RNase A type 12-A assessed as degradation of yeast tRNA preincubated for 10 mins before addition of the enzyme by double reciprocal plot analysis. Set-up: species or system Bos taurus.
In a further assay the target is Angiogenin (Homo sapiens, UniProt P03950). The assay can be described thus: Inhibition of ANG.
Chain of Angiogenin (P03950 whole entry): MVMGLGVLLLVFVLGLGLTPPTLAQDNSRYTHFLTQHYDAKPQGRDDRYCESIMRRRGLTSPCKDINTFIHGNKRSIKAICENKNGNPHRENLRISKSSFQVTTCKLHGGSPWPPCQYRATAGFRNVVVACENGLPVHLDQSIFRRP
The target of assay [3] is T1, Non-secretory ribonuclease (Homo sapiens, UniProt P10153).
T1 sequence (P10153 whole entry): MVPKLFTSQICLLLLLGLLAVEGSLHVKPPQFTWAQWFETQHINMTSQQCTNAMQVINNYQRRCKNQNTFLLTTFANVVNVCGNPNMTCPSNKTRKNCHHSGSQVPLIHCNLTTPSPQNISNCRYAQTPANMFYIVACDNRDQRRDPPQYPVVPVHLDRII
Description: Inhibition of EDN.

The target of assay [4] is Ribonuclease pancreatic (Bos taurus) (UniProt P61823). Description: Inhibition of RNase A.
The next assay concerns the target T2, Ribonuclease pancreatic (Bos taurus, UniProt P61823).
T2 sequence (P61823 whole entry): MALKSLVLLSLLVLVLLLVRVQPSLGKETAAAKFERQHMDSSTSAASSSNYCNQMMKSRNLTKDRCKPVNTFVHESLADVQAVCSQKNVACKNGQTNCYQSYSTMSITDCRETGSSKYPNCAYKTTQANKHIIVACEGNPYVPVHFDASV
Description: Inhibition of bovine pancreatic RNase A.

In the case of `O=c1ccn([C@@H]2O[C@H](COP(=O)(O)O)[C@@H](O)[C@H]2O)c(=O)[nH]1`, the Ki – broadly, the dissociation constant of the complex between target and ligand, obtained from inhibition or displacement – in assay [1] is 4000 µM.

Regarding `O=c1[nH]c(=O)n(Cc2cn([C@@H]3O[C@H](CO)[C@@H](O)[C@H]3O)nn2)cc1Br`, in the assay listed under Bos taurus, the inhibition (in general, how much of the control response was suppressed) turned out to be 20%.

`O=c1ccn([C@@H]2O[C@H](CO)[C@@H](O)[C@H]2O)c(=O)[nH]1` [URIDINE]: the Ki in assay [2] turned out to be 28.5 µM.

Turning to `O=c1[nH]c(=O)n([C@@H]2O[C@H](CO)[C@@H](O)[C@H]2O)cc1F` [5-FLUOROURIDINE], the Ki in assay [2] is 33.6 µM.

Turning to `O=c1[nH]c(=O)n([C@@H]2O[C@H](CO)[C@@H](O)[C@H]2O)cc1Cl`, the Ki in assay [2] came to 44.5 µM.

Regarding `Cc1cn([C@@H]2O[C@H](CO)[C@@H](O)[C@H]2O)c(=O)[nH]c1=O`, the Ki in assay [2] was found to be 44.1 µM.

Consider `O=c1[nH]c(=O)n([C@@H]2O[C@H](CO)[C@@H](O)[C@H]2O)cc1Br`, for which the Ki in assay [2] worked out at 69.1 µM.

In assay [1], `O=c1ccn([C@@H]2O[C@H](COP(=O)(O)OP(=O)(O)O)[C@@H](O)[C@H]2O)c(=O)[nH]1` [URIDINE_DIPHOSPHATE] gave a Ki of 650 µM.

On to `O=c1[nH]c(=O)n(Cc2cn([C@@H]3O[C@H](CO)[C@@H](O)[C@H]3O)nn2)cc1Cl`, for which the Ki in assay [2] is 94.8 µM.

As for `Nc1ncnc2c1ncn2[C@@H]1O[C@H](COP(=O)(O)OP(=O)(O)O[C@H]2C[C@H](n3ccc(=O)[nH]c3=O)O[C@@H]2COP(=O)(O)O)[C@@H](OP(=O)(O)O)[C@H]1O`, the Ki came to 360 µM on Angiogenin, 0.18 µM in assay [3] and 0.027 µM in assay [4].

Take `O=c1ccn(Cc2cn([C@@H]3O[C@H](CO)[C@@H](O)[C@H]3O)nn2)c(=O)[nH]1`: the Ki on Ribonuclease pancreatic turned out to be 0.24 µM.
